Results from the NIST ThermoML archive (doi:10.1016/j.tca.2012.01.013).

Tests used:
[1] = xn = mol fraction of the nth substance listed; conditions: 101 kPa, Liquid, Vibrating tube method
[2] = refractive index (Na D-line) (dimensionless); xn = mol fraction of the nth substance listed; conditions: 101 kPa, Liquid, Standard Abbe refractometry

COC(=O)c1ccccc1C(=O)OC [dimethyl 1,2-benzenedicarboxylate] + CCCCO
Conditions	mass density, [1] [kg/m3]	refractive index, [2]
288.15 K, x1 = 0.0997	877.193	1.42114
288.15 K, x1 = 0.1998	932.375	1.43796
288.15 K, x1 = 0.2994	980.153	1.45268
288.15 K, x1 = 0.3999	1022.54	1.4657
288.15 K, x1 = 0.5	1059.92	1.47709
288.15 K, x1 = 0.5985	1092.78	1.48663
288.15 K, x1 = 0.7001	1123.06	1.49584
288.15 K, x1 = 0.8016	1150.29	1.50398
288.15 K, x1 = 0.9002	1174.24	1.51118
288.15 K, x1 = 1	1196.26	1.51779
293.15 K, x1 = 0.0997	873.146	1.41907
293.15 K, x1 = 0.1998	928.143	1.43584
293.15 K, x1 = 0.2994	975.792	1.45052
293.15 K, x1 = 0.3999	1018.08	1.46353
293.15 K, x1 = 0.5	1055.37	1.47491
293.15 K, x1 = 0.5985	1088.17	1.48446
293.15 K, x1 = 0.7001	1118.42	1.49365
293.15 K, x1 = 0.8016	1145.63	1.50183
293.15 K, x1 = 0.9002	1169.57	1.50903
293.15 K, x1 = 1	1191.59	1.51565
298.15 K, x1 = 0.0997	869.077	1.41699
298.15 K, x1 = 0.1998	923.892	1.43374
298.15 K, x1 = 0.2994	971.414	1.44835
298.15 K, x1 = 0.3999	1013.6	1.46136
298.15 K, x1 = 0.5	1050.83	1.47274
298.15 K, x1 = 0.5985	1083.57	1.48227
298.15 K, x1 = 0.7001	1113.78	1.49148
298.15 K, x1 = 0.8016	1140.96	1.49966
298.15 K, x1 = 0.9002	1164.91	1.50689
298.15 K, x1 = 1	1186.93	1.51354
303.15 K, x1 = 0.0997	864.981	1.41489
303.15 K, x1 = 0.1998	919.619	1.43158
303.15 K, x1 = 0.2994	967.016	1.44618
303.15 K, x1 = 0.3999	1009.11	1.45918
303.15 K, x1 = 0.5	1046.26	1.47057
303.15 K, x1 = 0.5985	1078.96	1.4801
303.15 K, x1 = 0.7001	1109.14	1.48929
303.15 K, x1 = 0.8016	1136.31	1.49753
303.15 K, x1 = 0.9002	1160.25	1.50474
303.15 K, x1 = 1	1182.28	1.51146
308.15 K, x1 = 0.0997	860.864	1.41266
308.15 K, x1 = 0.1998	915.319	1.42932
308.15 K, x1 = 0.2994	962.593	1.44399
308.15 K, x1 = 0.3999	1004.6	1.45694
308.15 K, x1 = 0.5	1041.69	1.46834
308.15 K, x1 = 0.5985	1074.34	1.47795
308.15 K, x1 = 0.7001	1104.49	1.4871
308.15 K, x1 = 0.8016	1131.65	1.49537
308.15 K, x1 = 0.9002	1155.59	1.50263
308.15 K, x1 = 1	1177.62	1.50943
313.15 K, x1 = 0.0997	856.701	1.41048
313.15 K, x1 = 0.1998	910.989	1.42712
313.15 K, x1 = 0.2994	958.146	1.4417
313.15 K, x1 = 0.3999	1000.06	1.45469
313.15 K, x1 = 0.5	1037.11	1.4662
313.15 K, x1 = 0.5985	1069.7	1.47585
313.15 K, x1 = 0.7001	1099.84	1.48507
313.15 K, x1 = 0.8016	1126.98	1.4933
313.15 K, x1 = 0.9002	1150.93	1.50061
313.15 K, x1 = 1	1172.97	1.50736
318.15 K, x1 = 0.0997	852.519	1.40835
318.15 K, x1 = 0.1998	906.628	1.42501
318.15 K, x1 = 0.2994	953.674	1.43965
318.15 K, x1 = 0.3999	995.51	1.45257
318.15 K, x1 = 0.5	1032.5	1.46395
318.15 K, x1 = 0.5985	1065.06	1.47376
318.15 K, x1 = 0.7001	1095.18	1.48299
318.15 K, x1 = 0.8016	1122.32	1.49121
318.15 K, x1 = 0.9002	1146.27	1.49853
318.15 K, x1 = 1	1168.32	1.50524
323.15 K, x1 = 0.0997	848.279	1.40609
323.15 K, x1 = 0.1998	902.232	1.42274
323.15 K, x1 = 0.2994	949.172	1.4375
323.15 K, x1 = 0.3999	990.935	1.45024
323.15 K, x1 = 0.5	1027.87	1.46165
323.15 K, x1 = 0.5985	1060.4	1.47156
323.15 K, x1 = 0.7001	1090.51	1.48083
323.15 K, x1 = 0.8016	1117.65	1.48906
323.15 K, x1 = 0.9002	1141.61	1.4964
323.15 K, x1 = 1	1163.67	1.5032
